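Each compound was tested at five concentrations against cells in 96-well plates for 48 hours. GI50: concentration for 50% inhibition of growth.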 Calls of active or inactive are those of the source. Cut-off read from the data, not from the text of the source: active = GI50 up to about 1.1 µM and inactive = higher.
How the values were obtained:
Test in all cases: DTP human tumour cell line panel, 48 h
LXFL 529 = test system: LXFL 529
KM-20L2 = test system: KM-20L2
M19-MEL = test system: M19-MEL
DMS-114 = test system: DMS-114
XF498 = test system: XF498
RXF 631 = test system: RXF 631
HOP-18 = test system: HOP-18
DLD-1 = test system: DLD-1
SNB-78 = test system: SNB-78

Measured: GI50

O=C1CCC2(CCC(=O)NC2=O)C(=O)N1
inactive: LXFL 529 > 100 µM | KM-20L2 > 100 µM | M19-MEL > 100 µM | DMS-114 > 100 µM | XF498 > 100 µM

O=C(NO)C(=O)Nc1cc(Cl)ccc1Cl
inactive: LXFL 529 > 100 µM | RXF 631 62.7 µM | KM-20L2 > 100 µM | M19-MEL > 100 µM | DMS-114 69.3 µM | HOP-18 > 100 µM | DLD-1 > 100 µM | SNB-78 > 100 µM

Cc1ccc(C2(C)NC(=S)N(NC(N)=S)C2=S)cc1 (centres undefined)
inactive: LXFL 529 71.8 µM | RXF 631 > 100 µM | KM-20L2 > 100 µM | M19-MEL > 100 µM | DMS-114 73.6 µM | XF498 > 100 µM | DLD-1 71.1 µM

CCOP(=O)(C/C(=N/NC(C)(C)C)C(=O)Nc1nc2ccc(C)cc2s1)OCC
inactive: LXFL 529 > 100 µM | RXF 631 > 100 µM | KM-20L2 > 100 µM | M19-MEL > 100 µM | DMS-114 > 100 µM | XF498 > 100 µM | HOP-18 > 100 µM | SNB-78 > 100 µM

Cc1cc(NC(=O)NC(=O)c2ccccc2NC(=O)CN(C)C)ccc1Oc1ncc(Br)cn1
inactive: LXFL 529 13.1 µM | KM-20L2 4.56 µM | M19-MEL 36.8 µM | DMS-114 3.07 µM | XF498 19.7 µM | DLD-1 8.07 µM | SNB-78 19.2 µM

Cc1ccc(SSCCCS(=O)O)cc1
inactive: LXFL 529 27.7 µM | RXF 631 20.4 µM | KM-20L2 31.7 µM | M19-MEL 31.8 µM | DMS-114 15.9 µM | XF498 > 100 µM | HOP-18 > 100 µM | DLD-1 45.8 µM

N#CCCN(c1ccc(-c2nnc(NC(=O)CNNC(=O)CC(=O)Nc3ccccc3)s2)cc1)S(=O)(=O)c1ccccc1
inactive: LXFL 529 89.9 µM | RXF 631 > 100 µM | M19-MEL > 100 µM | DMS-114 55.8 µM | XF498 > 100 µM | HOP-18 > 100 µM | DLD-1 > 100 µM

COc1cc([C@@H]2c3cc4c(cc3[C@@H](OC(=O)c3ccc(N)cc3)C3COC(=O)[C@@H]32)OCO4)cc(OC)c1O (some centres undefined)
inactive: LXFL 529 14.8 µM | RXF 631 9.1 µM | KM-20L2 1.88 µM | M19-MEL 4.99 µM | HOP-18 > 95.1 µM | DLD-1 5.6 µM | SNB-78 15.2 µM

C/C(CC(=O)Nc1ccc([N+](=O)[O-])cc1)=N/N=C(N)N
inactive: LXFL 529 82 µM | RXF 631 > 100 µM | KM-20L2 > 100 µM | M19-MEL > 100 µM | DMS-114 > 100 µM | XF498 > 100 µM | DLD-1 > 100 µM | SNB-78 > 100 µM

O=[N+]([O-])c1ccc(C(O)/C(=N/O)c2nc3ccc(Cl)cc3nc2O)cc1 (centres undefined)
inactive: LXFL 529 > 100 µM | KM-20L2 > 100 µM | M19-MEL > 100 µM | DMS-114 > 100 µM | XF498 > 100 µM | DLD-1 > 100 µM

O=c1c(Cl)c(Cl)cnn1CCCl
inactive: LXFL 529 1.62 µM | KM-20L2 13 µM | M19-MEL 2.67 µM | DMS-114 4.3 µM | XF498 3 µM | DLD-1 1.47 µM | SNB-78 11.8 µM

Cc1ccc(NC(=O)CCC(=O)C2Cc3ccccc3C2=O)cc1C (centres undefined)
inactive: LXFL 529 > 100 µM | KM-20L2 > 100 µM | M19-MEL > 100 µM | DMS-114 > 100 µM | XF498 > 100 µM | HOP-18 > 100 µM | DLD-1 > 100 µM | SNB-78 > 100 µM

CCC12CCCN(Cc3ccccc3)C1c1c(n(C)c3ccccc13)[C@H](C(=O)OC)C2 (some centres undefined)
inactive: LXFL 529 > 239 µM | RXF 631 > 239 µM | KM-20L2 120 µM | M19-MEL 130 µM | DMS-114 226 µM | XF498 201 µM | DLD-1 > 239 µM

COc1ccc2c3c([nH]c2c1CC=C(C)C)C(=O)C=C(C)C3=O
inactive: LXFL 529 15.8 µM | KM-20L2 > 25 µM | M19-MEL 11.6 µM | DMS-114 18.3 µM | XF498 > 25 µM | HOP-18 12.1 µM | DLD-1 > 25 µM

O=C(Nc1cccc2c1C(=O)c1c(NC(=O)c3ccccc3)ccc(Nc3cccc4c3C(=O)c3ccccc3C4=O)c1C2=O)c1ccccc1
inactive: LXFL 529 > 100 µM | RXF 631 > 100 µM | KM-20L2 > 100 µM | M19-MEL > 100 µM | DMS-114 > 100 µM | HOP-18 > 100 µM | DLD-1 > 100 µM | SNB-78 > 100 µM

Cc1cc(Br)cc(C)c1NC(=O)C(=O)C(C(=O)c1ccc2ccccc2c1)C1OC(=O)c2ccccc21 (centres undefined)
inactive: LXFL 529 7.93 µM | RXF 631 16.4 µM | KM-20L2 19.2 µM | M19-MEL 12.4 µM | DMS-114 7.78 µM | XF498 1.14 µM | HOP-18 21.7 µM | DLD-1 13 µM | SNB-78 > 10 µM

Cc1cc(C(C)C)cc(=O)c(O)c1
inactive: LXFL 529 > 100 µM | RXF 631 > 100 µM | KM-20L2 > 100 µM | M19-MEL > 100 µM | HOP-18 > 100 µM | DLD-1 > 100 µM | SNB-78 > 100 µM

NC12CC3CC(C1)CC(C(=O)O)(C3)C2
inactive: LXFL 529 > 100 µM | KM-20L2 > 100 µM | M19-MEL > 100 µM | DMS-114 > 100 µM | XF498 > 100 µM | HOP-18 > 100 µM | DLD-1 > 100 µM | SNB-78 > 100 µM

COc1ccc(COC2CC(OC)OC(C)C2OC(=O)c2ccccc2)cc1 (centres undefined)
inactive: LXFL 529 26.5 µM | RXF 631 30.7 µM | KM-20L2 14.7 µM | M19-MEL 34.5 µM | DMS-114 26 µM | XF498 21.7 µM | HOP-18 > 100 µM | DLD-1 18.7 µM | SNB-78 41.7 µM

CCOC(=O)CCCO
inactive: LXFL 529 > 100 µM | RXF 631 > 100 µM | KM-20L2 > 100 µM | XF498 > 100 µM | HOP-18 > 100 µM | DLD-1 > 100 µM

CCOC(=O)/C([O-])=C(\C(=O)OCC)[n+]1c(C)n(C)c2ccccc21
inactive: LXFL 529 > 100 µM | KM-20L2 > 100 µM | M19-MEL > 100 µM | DMS-114 > 100 µM | HOP-18 > 100 µM | DLD-1 > 100 µM | SNB-78 > 100 µM

CCSC(=O)C1(C)OC2CCCCC2C1=O (centres undefined)
inactive: LXFL 529 > 100 µM | KM-20L2 > 100 µM | M19-MEL > 100 µM | DMS-114 > 100 µM | HOP-18 > 100 µM | DLD-1 > 100 µM | SNB-78 > 100 µM

CC(C)(CN1C(=O)C(Cl)=C(Cl)C1=O)CN1C(=O)C(Cl)=C(Cl)C1=O
inactive: LXFL 529 6.5 µM | KM-20L2 16.6 µM | M19-MEL 7.66 µM | DMS-114 9.75 µM | HOP-18 19.4 µM | DLD-1 3.38 µM | SNB-78 19 µM

CC(=O)/C(=N\O)C(=O)NCCc1ccccc1
inactive: LXFL 529 > 100 µM | KM-20L2 78.9 µM | M19-MEL > 100 µM | DMS-114 43.7 µM | XF498 31.6 µM | HOP-18 > 100 µM | DLD-1 60.4 µM | SNB-78 > 100 µM

O=C1CC(c2c[nH]c3ccccc23)C(=O)N1c1ccccc1 (centres undefined)
inactive: LXFL 529 > 100 µM | KM-20L2 > 100 µM | M19-MEL > 100 µM | XF498 > 100 µM | DLD-1 > 100 µM | SNB-78 > 100 µM

Cn1cnc([N+](=O)[O-])c1Sc1nnc(-c2ccc(Cl)cc2)n1C
inactive: LXFL 529 10.4 µM | RXF 631 15.6 µM | M19-MEL 14.1 µM | DMS-114 15.8 µM | HOP-18 5.25 µM | DLD-1 11 µM | SNB-78 13.2 µM

From ChEMBL document CHEMBL1201862, “PubChem BioAssay data set” (2004)
